BigSolDB 2.1

SMILES: CO[C@H]1O[C@@H]2O[C@@]3(C)CC[C@H]4[C@H](C)CC[C@@H]([C@H]1C)[C@@]24OO3
- solubility (mole fraction) (in ethanol, 289.05 K): 0.0395
- solubility (mole fraction) (in ethanol, 290.85 K): 0.0426
- solubility (mole fraction) (in ethanol, 293.95 K): 0.0492
- solubility (mole fraction) (in ethanol, 296.95 K): 0.0592
- solubility (mole fraction) (in ethanol, 299.05 K): 0.0682
- solubility (mole fraction) (in ethanol, 301.05 K): 0.0764
- solubility (mole fraction) (in ethanol, 303.95 K): 0.0903
- solubility (mole fraction) (in ethanol, 306.95 K): 0.11
- solubility (mole fraction) (in ethanol, 308.45 K): 0.117
- solubility (mole fraction) (in ethanol, 310.45 K): 0.133
- solubility (mole fraction) (in ethanol, 313.2 K): 0.164
- solubility (mole fraction) (in ethanol, 316.25 K): 0.2
- solubility (mole fraction) (in ethanol, 318.95 K): 0.251
- solubility (mole fraction) (in ethanol, 322.65 K): 0.315
- solubility (mole fraction) (in ethanol, 326.05 K): 0.387
- solubility (mole fraction) (in ethanol, 328.65 K): 0.442
- solubility (mole fraction) (in methanol, 289.45 K): 0.0263
- solubility (mole fraction) (in methanol, 291.15 K): 0.0295
- solubility (mole fraction) (in methanol, 294.05 K): 0.0343
- solubility (mole fraction) (in methanol, 296.95 K): 0.0405
- solubility (mole fraction) (in methanol, 299.05 K): 0.0463
- solubility (mole fraction) (in methanol, 300.75 K): 0.0519
- solubility (mole fraction) (in methanol, 303.55 K): 0.0649
- solubility (mole fraction) (in methanol, 306.35 K): 0.0824
- solubility (mole fraction) (in methanol, 308.25 K): 0.0988
- solubility (mole fraction) (in methanol, 310.15 K): 0.116
- solubility (mole fraction) (in methanol, 312.95 K): 0.149
- solubility (mole fraction) (in methanol, 315.65 K): 0.187
- solubility (mole fraction) (in methanol, 317.35 K): 0.222
- solubility (mole fraction) (in methanol, 319.45 K): 0.297
- solubility (mole fraction) (in methanol, 322.05 K): 0.355
